Measurements from patent publication US10219516B2, “Molecules having pesticidal utility, and intermediates, compositions, and processes, related thereto” (priority 2015, dated 2019).

What was measured:
Type in all cases: in vivo
[1] = tested on: Beet Armyworm (Spodoptera exigua, LAPHEG); assay: Bioassay on Beet Armyworm (BAW), 128-well diet tray assay; conditions: Beet Armyworm, 128-well diet tray assay, read-out: BAW rating
In short: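 In a 128-well format, eight wells per compound received a surface dose of 50 μg/cm^2 on artificial diet. After drying, each well got one to five second instar larvae, held at 25° C. with 14:10 photoperiod. Mortality percentages after five to seven days were averaged.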

[2] = tested on: Cabbage Looper (Trichoplusia ni, TRIPNI); assay: Bioassay on Cabbage Looper (CL), 128-well diet tray assay; conditions: Trichoplusia ni; Cabbage Looper, 128-well diet tray assay; read-out: CL rating
In short: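 Percent mortality, averaged across eight replicate wells, was scored after five to seven days at 25° C. under a 14:10 light-dark cycle. Each well held one to five second instar larvae on artificial diet treated at 50 μg/cm^2 with compound from 90:10 acetone-water, allowed to dry before infestation.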

[3] = tested on: Yellow Fever Mosquito (Aedes aegypti, AEDSAE); assay: Bioassay on Yellow Fever Mosquito (YFM), 96-well plate larval assay; conditions: Yellow Fever Mosquito, 96-well plate larval assay
In short: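 Compound stocks at 4000 ppm in DMSO were diluted with 90:10 water/acetone, and 15 μL aliquots were dispensed into six replicate plates. About 1-day-old larvae in liver-powder water were added per well. Plates were covered and held at room temperature for 3 days before each well was scored for mortality.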

O=C(Nc1ccc(F)cc1F)c1cc(NC(=O)[C@H]2[C@H](c3ccc(F)c(C(F)(F)F)c3)C2(Cl)Cl)ccc1Cl (relative stereo) [F376, 2-Chloro-5-(trans)-(2,2-dichloro-3-(4-fluoro-3-(trifluoromethyl)phenyl)cyclopropane-1-carboxamido)-N-(2,4-difluorophenyl)benzamide]
pest or weed control at 50 µg/cm2 [1]: 50 to 100%
pest or weed control at 50 µg/cm2 [2]: 50 to 100%
YFM rating [3]: A (80-100)

C=C(F)c1ccc([C@H]2[C@H](C(=O)Nc3ccc(Cl)c(C(=O)Nc4ccc(F)cc4)c3)C2(Cl)Cl)cc1Cl (relative stereo) [F382, 2-Chloro-5-(trans-2,2-dichloro-3-(3-chloro-4-(1-fluorovinyl)phenyl)cyclopropane-1-carboxamido)-N-(4-fluorophenyl)benzamide]
pest or weed control at 50 µg/cm2 [1]: 50 to 100%
pest or weed control at 50 µg/cm2 [2]: 50 to 100%
YFM rating [3]: A (80-100)

C=C(F)c1ccc([C@H]2[C@H](C(=O)Nc3ccc(Cl)c(C(=O)Nc4ccc(F)cc4F)c3)C2(Cl)Cl)cc1Cl (relative stereo) [F383, 2-Chloro-5-(trans-2,2-dichloro-3-(3-chloro-4-(1-fluorovinyl)phenyl)cyclopropane-1-carboxamido)-N-(2,4-difluorophenyl)benzamide]
pest or weed control at 50 µg/cm2 [1]: 50 to 100%
pest or weed control at 50 µg/cm2 [2]: 50 to 100%
YFM rating [3]: A (80-100)

C=C(F)c1cc([C@H]2[C@H](C(=O)Nc3ccc(Cl)c(C(=O)Nc4ccc(F)cc4)c3)C2(Cl)Cl)ccc1Cl (relative stereo) [F384, 2-Chloro-5-(trans-2,2-dichloro-3-(4-chloro-3-(1-fluorovinyl)phenyl)cyclopropane-1-carboxamido)-N-(4-fluorophenyl)benzamide]
pest or weed control at 50 µg/cm2 [1]: 50 to 100%
pest or weed control at 50 µg/cm2 [2]: 50 to 100%
YFM rating [3]: A (80-100)

C=C(F)c1cc([C@H]2[C@H](C(=O)Nc3ccc(Cl)c(C(=O)Nc4ccc(F)cc4F)c3)C2(Cl)Cl)ccc1Cl (relative stereo) [F385, 2-Chloro-5-(trans-2,2-dichloro-3-(4-chloro-3-(1-fluorovinyl)phenyl)cyclopropane-1-carboxamido)-N-(2,4-difluorophenyl)benzamide]
pest or weed control at 50 µg/cm2 [1]: 50 to 100%
pest or weed control at 50 µg/cm2 [2]: 50 to 100%
YFM rating [3]: A (80-100)

C=C(F)c1cc(Cl)cc([C@H]2[C@H](C(=O)Nc3ccc(Cl)c(C(=O)Nc4ccc(F)cc4F)c3)C2(Cl)Cl)c1 (relative stereo) [F386, 2-Chloro-5-(trans-2,2-dichloro-3-(3-chloro-5-(1-fluorovinyl)phenyl)cyclopropane-1-carboxamido)-N-(2,4-difluorophenyl)benzamide]
pest or weed control at 50 µg/cm2 [1]: 50 to 100%
pest or weed control at 50 µg/cm2 [2]: 50 to 100%
YFM rating [3]: A (80-100)

C=C(F)c1cc(Cl)cc([C@H]2[C@H](C(=O)Nc3ccc(Cl)c(C(=O)Nc4ccc(F)cc4C#N)c3)C2(Cl)Cl)c1 (relative stereo) [F387, 2-Chloro-N-(2-cyano-4-fluorophenyl)-5-(trans-2,2-dichloro-3-(3-chloro-5-(1-fluorovinyl)phenyl)cyclopropane-1-carboxamido)benzamide]
pest or weed control at 50 µg/cm2 [1]: 50 to 100%
pest or weed control at 50 µg/cm2 [2]: 50 to 100%
YFM rating [3]: A (80-100)

O=C(Nc1ncc(F)c(I)c1F)c1cc(NC(=O)[C@H]2[C@H](c3cc(Cl)cc(Cl)c3)C2(Cl)Cl)ccc1Cl (relative stereo) [F388, 2-Chloro-5-(trans-2,2-dichloro-3-(3,5-dichlorophenyl)cyclopropane-1-carboxamido)-N-(3,5-difluoro-4-iodopyridin-2-yl)benzamide]
pest or weed control at 50 µg/cm2 [1]: 50 to 100%
pest or weed control at 50 µg/cm2 [2]: 50 to 100%
YFM rating [3]: A (80-100)

C=Cc1ccc([C@H]2[C@H](C(=O)Nc3ccc(Cl)c(C(=O)Nc4ccc(F)cc4F)c3)C2(Cl)Cl)cc1F (relative stereo) [F389, 2-Chloro-5-(trans-2,2-dichloro-3-(3-fluoro-4-vinylphenyl)cyclopropane-1-carboxamido)-N-(2,4-difluorophenyl)benzamide]
pest or weed control at 50 µg/cm2 [1]: 50 to 100%
pest or weed control at 50 µg/cm2 [2]: 50 to 100%
YFM rating [3]: A (80-100)

C=Cc1cc([C@H]2[C@H](C(=O)Nc3ccc(Cl)c(C(=O)Nc4ccc(F)cc4F)c3)C2(Cl)Cl)ccc1F (relative stereo) [F390, 2-Chloro-5-(trans-2,2-dichloro-3-(4-fluoro-3-vinylphenyl)cyclopropane-1-carboxamido)-N-(2,4-difluorophenyl)benzamide]
pest or weed control at 50 µg/cm2 [1]: 50 to 100%
pest or weed control at 50 µg/cm2 [2]: 50 to 100%
YFM rating [3]: A (80-100)

C=Cc1ccc([C@H]2[C@H](C(=O)Nc3ccc(Cl)c(C(=O)Nc4ccc(F)cc4F)c3)C2(Cl)Cl)cc1C(F)(F)F (relative stereo) [F391, 2-Chloro-5-(trans-2,2-dichloro-3-(3-(trifluoromethyl)-4-vinylphenyl)cyclopropane-1-carboxamido)-N-(2,4-difluorophenyl)benzamide]
pest or weed control at 50 µg/cm2 [1]: 50 to 100%
pest or weed control at 50 µg/cm2 [2]: 50 to 100%
YFM rating [3]: A (80-100)

C=Cc1cc([C@H]2[C@H](C(=O)Nc3ccc(Cl)c(C(=O)Nc4ccc(F)cc4F)c3)C2(Cl)Cl)ccc1C(F)(F)F (relative stereo) [F392, 2-Chloro-5-(trans-2,2-dichloro-3-(4-(trifluoromethyl)-3-vinylphenyl)cyclopropane-1-carboxamido)-N-(2,4-difluorophenyl)benzamide]
pest or weed control at 50 µg/cm2 [1]: 50 to 100%
pest or weed control at 50 µg/cm2 [2]: 50 to 100%
YFM rating [3]: A (80-100)

C=Cc1c(F)cnc(NC(=O)c2cc(NC(=O)[C@H]3[C@H](c4cc(Cl)cc(Cl)c4)C3(Cl)Cl)ccc2Cl)c1F (relative stereo) [F393, trans-2-chloro-5-(2,2-dichloro-3-(3,5-dichlorophenyl)cyclopropane-1-carboxamido)-N-(3,5-difluoro-4-vinylpyridin-2-yl)benzamide]
pest or weed control at 50 µg/cm2 [1]: 50 to 100%
pest or weed control at 50 µg/cm2 [2]: 50 to 100%
YFM rating [3]: A (80-100)

C=C(F)c1c(F)cnc(NC(=O)c2cc(NC(=O)[C@H]3[C@H](c4cc(Cl)cc(Cl)c4)C3(Cl)Cl)ccc2Cl)c1F (relative stereo) [F394, 2-Chloro-5-(trans-2,2-dichloro-3-(3,5-dichlorophenyl)cyclopropane-1-carboxamido)-N-(3,5-difluoro-4-(1-fluorovinyl)pyridin-2-yl)benzamide]
pest or weed control at 50 µg/cm2 [1]: 50 to 100%
pest or weed control at 50 µg/cm2 [2]: 50 to 100%
YFM rating [3]: A (80-100)

O=C(Nc1cnc(F)c(Br)c1)c1cc(NC(=O)[C@H]2[C@H](c3cc(Cl)cc(Cl)c3)C2(Cl)Cl)ccc1Cl (relative stereo) [F395, N-(5-Bromo-6-fluoropyridin-3-yl)-2-chloro-5-(trans-2,2-dichloro-3-(3,5-dichlorophenyl)cyclopropane-1-carboxamido)benzamide]
pest or weed control at 50 µg/cm2 [1]: 50 to 100%
pest or weed control at 50 µg/cm2 [2]: 50 to 100%
YFM rating [3]: A (80-100)

Cc1cc(NC(=O)c2cc(NC(=O)[C@H]3[C@H](c4cc(Cl)cc(Cl)c4)C3(Cl)Cl)ccc2Cl)cnc1F (relative stereo) [F396, 2-Chloro-5-(trans-2,2-dichloro-3-(3,5-dichlorophenyl)cyclopropane-1-carboxamido)-N-(6-fluoro-5-methylpyridin-3-yl)benzamide]
pest or weed control at 50 µg/cm2 [1]: 50 to 100%
pest or weed control at 50 µg/cm2 [2]: 50 to 100%
YFM rating [3]: A (80-100)

C=Cc1ccc(NC(=O)c2cc(NC(=O)[C@H]3[C@H](c4cc(Cl)cc(Cl)c4)C3(Cl)Cl)ccc2Cl)nc1F (relative stereo) [F397, 2-Chloro-5-(trans-2,2-dichloro-3-(3,5-dichlorophenyl)cyclopropane-1-carboxamido)-N-(6-fluoro-5-vinylpyridin-2-yl)benzamide]
pest or weed control at 50 µg/cm2 [1]: 50 to 100%
pest or weed control at 50 µg/cm2 [2]: 50 to 100%
YFM rating [3]: A (80-100)

C=C(F)c1ccc(NC(=O)c2cc(NC(=O)[C@H]3[C@H](c4cc(Cl)cc(Cl)c4)C3(Cl)Cl)ccc2Cl)nc1F (relative stereo) [F398, 2-chloro-5-(trans-2,2-dichloro-3-(3,5-dichlorophenyl)cyclopropane-1-carboxamido)-N-(6-fluoro-5-(1-fluorovinyl)pyridin-2-yl)benzamide]
pest or weed control at 50 µg/cm2 [1]: 50 to 100%
pest or weed control at 50 µg/cm2 [2]: 50 to 100%
YFM rating [3]: A (80-100)

C=Cc1cc(NC(=O)c2cc(NC(=O)[C@H]3[C@H](c4cc(Cl)cc(Cl)c4)C3(Cl)Cl)ccc2Cl)cnc1F (relative stereo) [F399, 2-Chloro-5-(trans-2,2-dichloro-3-(3,5-dichlorophenyl)cyclopropane-1-carboxamido)-N-(6-fluoro-5-vinylpyridin-3-yl)benzamide]
pest or weed control at 50 µg/cm2 [1]: 50 to 100%
pest or weed control at 50 µg/cm2 [2]: 50 to 100%
YFM rating [3]: A (80-100)

C=C(F)c1cc(NC(=O)c2cc(NC(=O)[C@H]3[C@H](c4cc(Cl)cc(Cl)c4)C3(Cl)Cl)ccc2Cl)cnc1F (relative stereo) [F400, 2-Chloro-5-(trans-2,2-dichloro-3-(3,5-dichlorophenyl)cyclopropane-1-carboxamido)-N-(6-fluoro-5-(1-fluorovinyl)pyridin-3-yl)benzamide]
pest or weed control at 50 µg/cm2 [1]: 50 to 100%
pest or weed control at 50 µg/cm2 [2]: 50 to 100%
YFM rating [3]: A (80-100)

C#Cc1ccc([C@H]2[C@H](C(=O)Nc3ccc(Cl)c(C(=O)Nc4ccc(F)cc4C#N)c3)C2(Cl)Cl)cc1Cl (relative stereo) [F401, 2-chloro-N-(2-cyano-4-fluorophenyl)-5-(trans-2,2-dichloro-3-(3-chloro-4-ethynylphenyl)cyclopropane-1-carboxamido)benzamide]
pest or weed control at 50 µg/cm2 [1]: 50 to 100%
pest or weed control at 50 µg/cm2 [2]: 50 to 100%
YFM rating [3]: A (80-100)
